Laboratory results taken from patent US12285512B2, “Composition comprising allulose as active ingredient for skin whitening” (CJ CHEILJEDANG CORPORATION, priority 2018, dated 2025).
Entries after “also recorded” stand apart in the source; their conditions may differ.

Tests used:
tyrosinase from mushroom [1] = assay: Quantitative LC analysis of substrate (catechol) in the tyrosinase enzyme reactant; assay type: biochemical; conditions: 50 mM sample; for Reduction rate of catechol compared to initial stage of reaction: 0 to 60 min, D.W. control 8.2%; for Reduction rate of catechol compared to initial stage of reaction / amount of catechol in the enzyme reactant: 37° C.; for tyrosinase activity (from catechol consumption, Table 2): LC quantification of catechol
Procedure: (§1) An enzyme solution was prepared by dissolving 0.2 mg/ml of tyrosinase from mushroom (25 KU, 2687 units/mg solid) in 50 mM sodium phosphate buffer (pH 6.5). […] As a substrate, 30 mM catechol, an enzyme solution, and 100 mM sodium phosphate buffer (pH 6.5) were mixed so that the mixing ratio of catechol:enzyme solution:sodium phosphate buffer was 5:1:4. […] As a co-sample solution, DW was added instead of the enzyme solution. After mixing, absorbance was measured at 420 nm.
A catechol standard preparation was diluted according to concentration, and then was subjected to LC analysis to obtain a standard curve of the catechol. 200 μl of each enzyme reaction solution obtained in Experimental Example 2-1 above was added into a PCR tube, and was reacted at 37° C. for 0 minutes (an enzyme reaction product in which the enzyme was inactivated by heating each enzyme reaction solution for 10 minutes), 10 minutes, 20 minutes, 30 minutes, and 60 minutes to prepare an enzyme reactant for each reaction time. The reaction was stopped using a heat block. The reaction was stopped according to the planned time and heated in a heat block at 105° C. for 10 minutes, and then put in ice and cooled for 10 minutes. The PCR tube was centrifuged twice using a centrifuge. LC analysis was carried out by a typical analytical method. The enzyme reactant was filtered with a 1-ml syringe. The filtered enzyme reactant was injected into an insert, and was subjected to LC analysis. The amount of catechol in the enzyme reactant was measured according to the standard curve, which is obtained in advance, for quantifying catechol.

tyrosinase from mushroom [2] = assay: Polyphenol oxidase (tyrosinase from mushroom) activity, catechol substrate, absorbance at 420 nm; assay type: biochemical; conditions: 50 mM sample, 30 mM catechol substrate, pH 6.5; FIG. 2
Procedure: as §1

Murine melanocytes = assay: Inhibitory effect on melanogenesis: intracellular melanin (OD405) in a-MSH-treated murine melanocytes; assay type: cell-based; conditions: 50 μM a-MSH, 72 hours, FIG. 1
Procedure: Murine melanocytes were seeded on each 6-well plate at 1×10^4 cells/well. In a sample treatment group 24 hours after the seeding, cells were treated with allulose (CJ CheilJedang, 98% or higher purity) at a concentration of 0.01 wt %, 0.1 wt %, and 1 wt %. In a positive control group, cells were treated with arbutin at 0.02 wt %. A comparative group was treated with 1 wt % of glucose (Sigma Aldrich) or 1 wt % of fructose (Sigma Aldrich). An untreated group (control) was not treated with a sample, or a-MSH inducing melanin production. The sample treatment group, the positive control group, the comparative group, and the negative control group were treated with 50 μM of a-MSH. After 72 hours of treatment, cells were recovered and lysed with NaOH to detect intracellular melanin. The absorbances (OD405) of the untreated group, the negative control group (treated with only a-MSH), the sample treatment group (treated with a-MSH and each sample by concentration), and the positive control group (treated with a-MSH and arbutin) were measured.

[3] = reaction time 0 min (enzyme inactivated by heating)

Compound	Reduction rate of catechol compared to initial stage of reaction (tyrosinase from mushroom [1]) [%]	tyrosinase activity (from catechol consumption, Table 2) (tyrosinase from mushroom [1])	amount of catechol in the enzyme reactant (tyrosinase from mushroom [1]; [3]) [ppm]	amount of catechol in the enzyme reactant (tyrosinase from mushroom [1]; reaction time 30 min) [ppm]	amount of catechol in the enzyme reactant (tyrosinase from mushroom [1]; reaction time 60 min) [ppm]	tyrosinase activity (absorbance at 420 nm) (tyrosinase from mushroom [2])	melanogenesis (intracellular melanin, OD405) (Murine melanocytes; 1 wt % of sample)	melanogenesis (intracellular melanin, OD405) (Murine melanocytes; allulose-treated group (0.01, 0.1 and 1 wt %))
OC[C@H]1O[C@@](CO)(O[C@H]2O[C@H](CO)[C@@H](O)[C@H](O)[C@H]2O)[C@@H](O)[C@@H]1O [Comparative Example 1, sucrose]	8.1	not inhibited at all	3296.7	3112.0	3031.0			
O=C(CO)C(O)C(O)C(O)CO (centres unmarked) [allulose]	6.1	tyrosinase activity was inhibited	3288.7	3126.7	3087.0	tyrosinase activity was inhibited	inhibit melanogenesis; also recorded: melanogenesis was significantly inhibited	melanogenesis was suppressed
O=C(CO)[C@@H](O)[C@H](O)[C@H](O)CO [fructose]	8.2	not inhibited at all	3236.0	3069.0	2971.0	not inhibited at all	melanogenesis was not inhibited at all	
